Results on three molecules are retold here after paper PMC3871529, “At a Supra-Physiological Concentration, Human Sexual Hormones Act as Quorum-Sensing Inhibitors” (PLoS ONE, 2013).

Data set [1] relates to A. tumefaciens NT1(pZLR4) traG-lacZ reporter fusion. Description: QSI activity on A. tumefaciens AHL-bioindicator (traG-lacZ β-galactosidase). It counts as cell-based, Agrobacterium tumefaciens. Conditions: for QSI hit in library screening: second screening: compounds at 5 µg/ml, C8-HSL 10 nM, A. tumefaciens biosensor. The protocol:
Two bacterial QS-signal biosensors were used. Chromobacterium violaceum CV026 [41] was grown in Luria-Bertani modified (LBm) medium, in which the NaCl concentration was 5 g/l instead of 10 g/l. Agrobacterium tumefaciens NT1(pZLR4) was grown in AB minimal medium supplemented with mannitol (0.2%). After supplementation with appropriate AHL, each of the QS-biosensors expresses a reporting activity, which is the production of the pigment violacein in C. violaceum CV026 and that of β-galactosidase from the transcriptional fusion traG::lacZ in A. tumefaciens NT1(pZLR4).
When the screening was performed, the chemical library of the Institut de Chimie des Substances Naturelles (ICSN, Gif-sur-Yvette, France) contained more than 3500 synthetic and natural compounds, which were individually dissolved in dimethylsulfoxide (DMSO) at 1mg/ml and stored in 96 microwell plates. A first screening was performed by mixing biosensor CV026 with the AHL hexanoylhomoserine lactone (C6-HSL) at 0.5 µM and the tested compounds at 50 µg/ml. Final volume was adjusted to 100 µl with a synthetic medium (10% LBm and 0.4% sucrose). After 24 hours of incubation at 30°C, the presence or absence of violacein pigment was quoted by visual reading. […] Final volume was adjusted to 100 µl by the addition of AB minimal medium supplemented with mannitol (0.2%) and TY medium (10%). After 4 hours of incubation at 30°C, β-galactosidase activity was measured in A. tumefaciens cultures as previously described. In the two screenings, 4-nitropyridine-N-oxide (4-NPO) was used as a QSI reference. […]

The next data set concerns P. aeruginosa. Description: Growth kinetics of P. aeruginosa in the presence of QSIs. The data set is classed as cell-based, Pseudomonas aeruginosa. Conditions: QSI at 0.5 mg/ml, OD600 and CFU at 8 and 18 hour. As to the method:
Figure 5 QSIs modulated QS-signal accumulation in P. aeruginosa. Growth kinetics (n = 6) of P. aeruginosa was measured (OD600) in the presence of the QSIs (estradiol, estrone, estriol, hordenine and 4-NPO) at 0.5 mg/ml using DMSO as a negative control. Cell counts were assessed (CFU/ml) at 8- and 18-hour, and C4-HSL and OC12-HSL concentration (µM) were determined in the bacterial cultures at 18-hour. Statistically different values (Student's t test with α = 0.01) are noted by asterisks.
QS gene transcription in P. aeruginosa PAO1 was monitored using PAO1 strains carrying various gene promoters fused to a lacZ reporter gene, as described in Vandeputte et al., 2010 and Table 1. PAO1 reporter strains were prepared according to Vandeputte et al.. Briefly, 18-hours-old liquid cultures (50 µl) were diluted in order to obtain a starting OD600 nm comprised between 0.02 and 0.03 in fresh LB medium supplemented with 50 mM MOPS pH 7.0 (1 ml), carbenicillin (300 µg/ml) and 10 µl of the QSIs to be tested (OD were measured using a SpectraMax M2 device from Molecular Devices). Test and control QSIs were diluted in 100% DMSO (resulting after addition to the growth medium in a 1% final concentration of DMSO). Cultures were incubated for 18 hours at 37°C with agitation. After incubation, cell densities were assessed spectrophotometrically (OD600 nm) and β-galactosidase assays were performed using the substrate o-nitrophenyl-β-D-galactopyranoside as described previously, [29]. Promoterless-lacZ fusions were used as controls. AHLs were quantified as described in Vandeputte et al.. All tests were performed in quintuplicates and three biological repetitions. The statistical significance of each test was evaluated by conducting Student's t tests and two-way ANOVA combined with the Tukey post-analysis test using the GraphPad Prism software and p values≤0.01 were considered significant.

For the molecule `CN(C)CCc1ccc(O)cc1` [Compound 3499, hordenine], in data set [1] (Agrobacterium tumefaciens, read-out: inhibition (%) at 100 µg/ml), the inhibition at 100 µg/mL came to 19%. For the same molecule, the “QSI hit in library screening” value in data set [1] was “hits”. Moreover, in the data set with P. aeruginosa, the “effect on growth of P. aeruginosa” value is “slightly delayed the growth”.
Broadly, the IC50 is the concentration that gives 50% inhibition. In the case of “3-Hydroxy-13-methyl-6,7,8,9,11,12,13,14,15,17-decahydro-cyclopenta[a] phenanthren-16-one [Compound 729, reference compound]”, the “QSI hit in library screening” value in data set [1] was “hits”. For the same molecule, the IC50 in data set [1] (β-galactosidase activity of Agrobacterium biosensor in presence of AHL (C8-HSL 10 nM), QSI 1.5 to 100 µg/ml) was determined as 75 µg/mL. The “effect on growth of P. aeruginosa” value in the data set with P. aeruginosa is on record as “did not affect the growth”.
In the case of `C[C@]12CC[C@@H]3c4ccc(O)cc4CC[C@H]3[C@@H]1C[C@@H](O)[C@@H]2O` [Estriol, estriol], the “effect on growth of P. aeruginosa” value in the data set on P. aeruginosa was “did not affect the growth”.
